Reference: ChEMBL document CHEMBL5608179, “Triptonide induces apoptosis and inhibits the proliferation of ovarian cancer cells by activating the p38/p53 pathway and autophagy” (Bioorg Med Chem, 2024)
Activity calls are given as the source filed them. The rule behind the calls is not given here.

Columns and labels:
A2780 [1] = experiment: Antiproliferative activity against human A2780 cells assessed as number of fluorescent dots in presence of SB203580 at 4 nM measured after 24 hrs by KitkFluor555 Click-iT EdU Kit staining assay; format: functional, cell-based
A2780 [2] = experiment: Induction of cell cycle arrest in human A2780 cells assessed as accumulation of cells at S phase in presence of SB203580 at 4 nM measured after 24 hrs by PI staining based Cell Cycle Analysis Kit (KeyGEN) (reference value: 15%); format: functional
A2780 [3] = experiment: Induction of cell cycle arrest in human A2780 cells assessed as accumulation of cells at S phase at 4 nM measured after 24 hrs by PI staining based ell Cycle Analysis Kit (KeyGEN) (reference value: 10%); format: functional
A2780 [4] = experiment: Induction of cell cycle arrest in human A2780 cells assessed as accumulation of cells at G2 phase at 4 nM measured after 24 hrs by PI staining based Cell Cycle Analysis Kit (KeyGEN) (reference value: 24.5%); format: functional
A2780 [5] = experiment: Induction of cell cycle arrest at S phase in human A2780 cells assessed as increase in cyclin E1 proteins measured after 24 hrs by Western blot analysis; format: functional, cell-based; conditions: dose 5-20 nM
A2780 [6] = experiment: Cytotoxicity against human A2780 cells assessed as cell viability measured in presence of SB203580 after 48 hrs by MTT assay; format: functional, cell-based
A2780 [7] = experiment: Antiproliferative activity against human A2780 cells assessed as number of fluorescent dots in presence of p53 SiRNA 1 in presence of bafilomycin A1 at 4 nM measured after 24 hrs by KitkFluor555 Click-iT EdU Kit staining assay; format: functional, cell-based
A2780 [8] = experiment: Cytotoxicity against human A2780 cells assessed as cell viability in presence of p53 SiRNA 1 measured after 48 hrs by MTT assay; format: functional, cell-based
A2780 [9] = experiment: Antiproliferative activity against human A2780 cells assessed as number of fluorescent dots in presence of p53 SiRNA 2 at 4 nM measured after 24 hrs by KitkFluor555 Click-iT EdU Kit staining assay; format: functional, cell-based
[10] = Toxicity in BALB/c-nu mouse subcutaneously inoculated with human A2780 cells assessed as morphological changes of liver at 3 to 5 mg/kg, ip administered every day for 20 days by HE staining analysis; format: organism-based; conditions: in vivo, sc, 480 h, dose 3-5 mg/kg, time 20 day
A2780 [11] = experiment: Induction of apoptosis in human A2780 cells assessed as late apoptotic cells at 800 nM measured after 24 hrs by Annexin V-FITC/PI flow cytometry (reference value: 1.58%); format: functional
A2780 [12] = experiment: Induction of cell cycle arrest in human A2780 cells assessed as accumulation of cells at G2 phase in presence of SB203580 at 4 nM measured after 24 hrs by PI staining based Cell Cycle Analysis Kit (KeyGEN) (reference value: 24.5%); format: functional
A2780 [13] = experiment: Cytotoxicity against human A2780 cells assessed as cell viability measured after 48 hrs by MTT assay; format: functional, cell-based; conditions: A2780, 48 h
A2780 [14] = experiment: Induction of apoptosis in human A2780 cells assessed as late apoptotic cells at 4 nM measured after 24 hrs by Annexin V-FITC/PI flow cytometry (reference value: 2.54%); format: functional
A2780 [15] = experiment: Induction of apoptosis in human A2780 cells assessed as increase in cleaved caspase 3 level measured at 5 to 20 nM by Western blot analysis; format: functional, cell-based; conditions: dose 5-20 nM, time 12-48 hrs, TDE = time-dependent effect
A2780 [16] = experiment: Induction of cell cycle arrest at S phase in human A2780 cells assessed as increase in cyclin E1 proteins in presence of SB203580 measured at 10 nM after 24 hrs by Western blot analysis; format: functional, cell-based
A2780 [17] = experiment: Induction of cell cycle arrest in human A2780 cells assessed as accumulation of cells at S phase at 4 nM measured after 24 hrs by PI staining based Cell Cycle Analysis Kit (KeyGEN) (reference value: 15%); format: functional
A2780 [18] = experiment: Induction of apoptosis in human A2780 cells assessed as late apoptotic cells in presence of p53 SiRNA 1 at 4 nM measured after 24 hrs by Annexin V-FITC/PI flow cytometry (reference value: 2.54%); format: functional
A2780 [19] = experiment: Induction of apoptosis in human A2780 cells assessed as increase in cleaved caspase 9 level measured after 12 to 48 hrs by Western blot analysis; format: functional, cell-based; conditions: dose 5-20 nM, time 12-48 hrs
A2780 [20] = experiment: In vivo antitumor activity against human A2780 cells subcutaneously inoculated in BALB/c-nu mouse assessed as reduction in tumor volume at 3 to 5 mg/kg, ip administered every day for 20 days; format: functional, organism-based; conditions: dose 3-5 mg/kg, time 20.0 day
A2780 [21] = experiment: Induction of apoptosis in human A2780 cells assessed as late apoptotic cells in presence of bafilomycin A1 at 800 nM measured after 24 hrs by Annexin V-FITC/PI flow cytometry (reference value: 1.58%); format: functional
A2780 [22] = experiment: Induction of apoptosis in human A2780 cells assessed as early apoptotic cells in presence of SB203580 at 8 nM measured after 24 to 72 hrs by Annexin V-FITC/PI flow cytometry (reference value: 2.82%); format: functional; conditions: time 24-72 hrs
A2780 [23] = experiment: Induction of cell cycle arrest in human A2780 cells assessed as accumulation of cells at G2 phase at 1 nM measured after 24 hrs by PI staining based ell Cycle Analysis Kit (KeyGEN) (reference value: 22.2%); format: functional
A2780 [24] = experiment: Induction of LC3II expression in human A2780 cells at 5 to 20 nM measured after 24 hrs by Western blot analysis; format: functional, cell-based; conditions: dose 5-20 nM
A2780 [25] = experiment: Induction of apoptosis in human A2780 cells assessed as early apoptotic cells at 8 nM measured after 24 to 72 hrs by Annexin V-FITC/PI flow cytometry (reference value: 2.82%); format: functional; conditions: time 24-72 hrs
A2780 [26] = experiment: Induction of apoptosis in human A2780 cells assessed as necrotic cells in presence of bafilomycin A1 at 800 nM measured after 24 hrs by Annexin V-FITC/PI flow cytometry (reference value: 0.18%); format: functional
[27] = molecular target: Cellular tumor antigen p53 (Homo sapiens) (UniProt P04637); experiment: Activation of p53 in human A2780 cells assessed as increase phosphorylation of p38 at 5 to 20 nM measured after 24 hrs by Western blot analysis; format: cell-based; conditions: filed as activator, dose 5-20 nM
Chain of Cellular tumor antigen p53 (Homo sapiens) (P04637 whole entry, looked up): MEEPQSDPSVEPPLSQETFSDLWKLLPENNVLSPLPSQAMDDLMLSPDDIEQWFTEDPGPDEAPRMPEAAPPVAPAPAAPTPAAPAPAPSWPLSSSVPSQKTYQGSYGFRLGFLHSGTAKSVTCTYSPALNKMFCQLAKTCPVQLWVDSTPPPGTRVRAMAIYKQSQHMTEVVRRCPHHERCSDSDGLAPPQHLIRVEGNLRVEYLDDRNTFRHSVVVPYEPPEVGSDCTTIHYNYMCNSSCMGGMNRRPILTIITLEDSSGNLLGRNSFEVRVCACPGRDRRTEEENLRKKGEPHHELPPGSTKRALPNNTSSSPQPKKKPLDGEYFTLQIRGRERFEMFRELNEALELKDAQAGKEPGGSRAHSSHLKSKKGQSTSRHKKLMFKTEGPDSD

A2780 [28] = experiment: Induction of apoptosis in human A2780 cells assessed as viable cells at 8 nM measured after 24 to 72 hrs by Annexin V-FITC/PI flow cytometry (reference value: 94.2%); format: functional; conditions: time 24-72 hrs, read-out: Activity
[29] = Toxicity in BALB/c-nu mouse subcutaneously inoculated with human A2780 cells assessed as morphological changes of spleen at 3 to 5 mg/kg, ip administered every day for 20 days by HE staining analysis; format: organism-based; conditions: in vivo, sc, 480 h, dose 3-5 mg/kg, time 20 day
A2780 [30] = experiment: Induction of apoptosis in human A2780 cells assessed as late apoptotic cells at 8 nM measured after 24 to 72 hrs by Annexin V-FITC/PI flow cytometry (reference value: 2.54%); format: functional; conditions: time 24-72 hrs
A2780 [31] = experiment: Induction of apoptosis in human A2780 cells assessed as necrotic cells at 4 nM measured after 24 hrs by Annexin V-FITC/PI flow cytometry (reference value: 0.39%); format: functional

## CC(C)[C@]12O[C@H]1[C@@H]1O[C@]13[C@]1(O[C@H]1C[C@H]1C4=C(CC[C@@]13C)C(=O)OC4)[C@@H]2O [TRIPTOLIDE]
A2780 [1]
  Activity: inactive
A2780 [2]
  Activity: 19.3%
A2780 [3]
  Activity: 30.5%
A2780 [4]
  Activity: 27.4%
A2780 [5]
  Activity: Dose-Dependent Effect
A2780 [6]
  Activity: inactive
A2780 [7]
  Activity: inactive
A2780 [8]
  Activity: inactive
A2780 [9]
  Activity: inactive
[10]
  Activity: Non-Toxic
A2780 [11]
  Activity: 9.01%
A2780 [12]
  Activity: 31.1%
A2780 [13]
  IC50: 1830 nM
A2780 [14]
  Activity: 27.5%
A2780 [15]
  Activity: Tde
A2780 [16]
  Activity: inactive
A2780 [17]
  Activity: 29.4%
A2780 [18]
  Activity: 14.3%
A2780 [19]
  Activity: Dose-Dependent Effect
A2780 [20]
  Activity: Active
A2780 [21]
  Activity: 3.96%
A2780 [22]
  Activity: 13.1%
A2780 [23]
  Activity: 15.4%
A2780 [24]
  Activity: Active
A2780 [25]
  Activity: 18.6%
A2780 [26]
  Activity: 0.75%
[27]
  Activity: Active
A2780 [28]
  viability at 0.008 µM: 55.8%
[29]
  Activity: Non-Toxic
A2780 [30]
  Activity: 20%
A2780 [31]
  Activity: 9.88%
